Experimental findings from patent US20230365553A1, “COMPOUNDS AND COMPOSITIONS FOR TREATING CONDITIONS ASSOCIATED WITH STING ACTIVITY” (IFM Due, Inc., priority 2020, published 2023) are described below.

SMILES strings stand for the structures.

The target in the test is T1, STING (Homo sapiens, UniProt Q86WV6, G230A/H232R/R293Q/R71H).
T1 construct: host or cells: THP1-Dual KO-IFNAR2 cells
Briefly: STING reporter assay: luciferase reporter activity in THP1-Dual KO-IFNAR2 cells stimulated with 2′3′cGAMP. In kind it is cell-based. The note with it: 15 μM 2′3′cGAMP, 24h, read-out: hSTING EC50. The procedure:
STING pathway activation by the compounds described herein was measured using THP 1-Dual™ cells (KO-IFNAR2).
THP1-Dual™ KO-IFNAR2 Cells (obtained from invivogen) were maintained in RPMI, 10% FCS, 5 ml P/S, 2 mM L-glut, 10 mM Hepes, and 1 mM sodium pyruvate. Compounds were spotted in empty 384 well tissue culture plates (Greiner 781182) by Echo for a final concentration of 0.0017-100 μM. Cells were plated into the TC plates at 40 μL per well, 2×10E6 cells/mL. For activation with STING ligand, 2′3′cGAMP (MW 718.38, obtained from Invivogen), was prepared in Optimem media.
The following solutions were prepared for each 1×384 plate: • Solution A: 2 mL Optimem with one of the following stimuli: • 60 μL of 10 mM 2′3′cGAMP→150 μM stock • Solution B: 2 mL Optimem with 60 μL Lipofectamine 2000→Incubate 5 min at RT
2 mL of solution A and 2 ml Solution B was mixed and incubated for 20 min at room temperature (RT). 20 μL of transfection solution (A+B) was added on top of the plated cells, with a final 2′3′cGAMP concentration of 15 μM. The plates were then centrifuged immediately at 340 g for 1 minute, after which they were incubated at 37° C., 5% CO2, >98% humidity for 24h. Luciferase reporter activity was then measured. EC50 values were calculated by using standard methods known in the art.
Luciferase reporter assay: 10 μL of supernatant from the assay was transferred to white 384-plate with flat bottom and squared wells. One pouch of QUANTI-Luc™ Plus was dissolved in 25 mL of water. 100 μL of QLC Stabilizer per 25 mL of QUANTI-Luc™ Plus solution was added. 50 μL of QUANTI-Luc™ Plus/QLC solution per well was then added. Luminescence was measured on a Platereader (e.g., Spectramax I3X (Molecular Devices GF3637001)).
Luciferase reporter activity was then measured. EC50 values were calculated by using standard methods known in the art.

T1 sequence (Q86WV6 whole entry R71H/G230A/H232R/R293Q): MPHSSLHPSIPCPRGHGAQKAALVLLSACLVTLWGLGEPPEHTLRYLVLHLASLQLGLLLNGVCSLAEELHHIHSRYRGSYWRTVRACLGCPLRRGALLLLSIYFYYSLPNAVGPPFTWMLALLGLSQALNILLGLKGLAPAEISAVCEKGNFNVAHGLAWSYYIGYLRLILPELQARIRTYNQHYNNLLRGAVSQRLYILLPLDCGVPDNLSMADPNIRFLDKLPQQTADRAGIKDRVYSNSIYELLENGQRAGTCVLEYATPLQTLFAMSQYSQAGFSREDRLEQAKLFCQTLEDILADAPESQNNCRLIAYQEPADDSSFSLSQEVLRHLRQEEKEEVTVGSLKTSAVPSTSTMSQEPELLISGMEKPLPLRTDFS

As for `CCC(=O)Nc1c[nH]c2ccc(-c3cnn(-c4ccc(C#N)cc4)c3)cc12` [Compound 101, N-(5-(1-(4-cyanophenyl)-1H-pyrazol-4-yl)-1H-indol-3-yl)propionamide], the EC50 fell in the range of 200 to 1000 nM.
As for `CCC(=O)Nc1c[nH]c2ccc(-c3cnn(-c4ccc(CC(F)(F)F)cc4)c3)cc12` [Compound 102, N-(5-(1-(4-(2,2,2-trifluoroethyl)phenyl)-1H-pyrazol-4-yl)-1H-indol-3-yl)propionamide], the figure is 200 to 1000 nM; as for `CCC(=O)Nc1c[nH]c2cc(F)c(-c3cnn(-c4ccc(CC)cc4)c3)cc12` [Compound 103, N-(5-(1-(4-ethylphenyl)-1H-pyrazol-4-yl)-6-fluoro-1H-indol-3-yl)propionamide], 200 to 1000 nM.
For the compound `CCC(=O)Nc1c[nH]c2ccc(-c3cnn(-c4ccc(COC)cc4)c3)cc12` [Compound 104, N-(5-(1-(4-(methoxymethyl)phenyl)-1H-pyrazol-4-yl)-1H-indol-3-yl)propionamide], the EC50 fell in the range of 200 to 1000 nM.
As for `CCC(=O)Nc1c[nH]c2ccc(-c3cnn(-c4ccc(C(F)(F)F)cn4)c3)cc12` [Compound 105, N-(5-(1-(5-(trifluoromethyl)pyridin-2-yl)-1H-pyrazol-4-yl)-1H-indol-3-yl)propionamide], the figure is 200 to 1000 nM; as for `CCc1ccc(-n2cc(-c3ccc4[nH]cc(NC(=O)COC)c4c3)cn2)cc1` [Compound 106, N-(5-(1-(4-ethylphenyl)-1H-pyrazol-4-yl)-1H-indol-3-yl)-2-methoxyacetamide], 40 to 200 nM.
Next, `CCc1ccc(-n2cc(-c3ccc4[nH]cc(NC(=O)CCC#N)c4c3)cn2)cc1` [Compound 107, 3-cyano-N-(5-(1-(4-ethylphenyl)-1H-pyrazol-4-yl)-1H-indol-3-yl)propanamide]: 200 to 1000 nM; `CCc1ccc(-n2cc(-c3ccc4[nH]cc(NC(=O)C5CCN(C(=O)OC(C)(C)C)C5)c4c3)cn2)cc1` (stereo not drawn) [Compound 108, tert-butyl 3-((5-(1-(4-ethylphenyl)-1H-pyrazol-4-yl)-1H-indol-3-yl)carbamoyl)pyrrolidine-1-carboxylate]: 200 to 1000 nM.
As for `CCC(=O)Nc1c[nH]c2ccc(-c3cnn(-c4ccc(C(F)(F)F)c(C)c4)c3)cc12` [Compound 109, N-(5-(1-(3-methyl-4-(trifluoromethyl)phenyl)-1H-pyrazol-4-yl)-1H-indol-3-yl)propionamide], the figure is 200 to 1000 nM; as for `CCC(=O)Nc1c[nH]c2ccc(-c3cnn(-c4ccc(OCC(F)(F)F)cc4)c3)cc12` [Compound 110, N-(5-(1-(4-(2,2,2-trifluoroethoxy)phenyl)-1H-pyrazol-4-yl)-1H-indol-3-yl)propionamide], 40 to 200 nM.
On to `O=C(Nc1c[nH]c2ccc(-c3cnn(-c4ccc(C(F)(F)F)cc4)c3)cc12)C1CCC1` [Compound 111, N-(5-(1-(4-(trifluoromethyl)phenyl)-1H-pyrazol-4-yl)-1H-indol-3-yl)cyclobutanecarboxamide], for which the EC50 was 200 to 1000 nM.
As for `CCc1ccc(-n2cc(-c3ccc4[nH]cc(NC(=O)C5COC5)c4c3)cn2)cc1` [Compound 112, N-(5-(1-(4-ethylphenyl)-1H-pyrazol-4-yl)-1H-indol-3-yl)oxetane-3-carboxamide], the figure is 200 to 1000 nM; as for `CCc1ccc(-n2cc(-c3ccc4[nH]cc(NC(=O)CC(C)(C)O)c4c3)cn2)cc1` [Compound 113, N-(5-(1-(4-ethylphenyl)-1H-pyrazol-4-yl)-1H-indol-3-yl)-3-hydroxy-3-methylbutanamide], 40 to 200 nM; as for `CCc1ccc(-n2cc(-c3ccc4[nH]cc(NC(=O)C(C)NC(=O)OC(C)(C)C)c4c3)cn2)cc1` (stereo not drawn) [Compound 114, tert-butyl (1-((5-(1-(4-ethylphenyl)-1H-pyrazol-4-yl)-1H-indol-3-yl)amino)-1-oxopropan-2-yl)carbamate], 200 to 1000 nM.
As for `CCc1ccc(-n2cc(-c3ccc4[nH]cc(NC(=O)C5CCCC5)c4c3)cn2)cc1` [Compound 115, N-(5-(1-(4-ethylphenyl)-1H-pyrazol-4-yl)-1H-indol-3-yl)cyclopentanecarboxamide], the figure is 40 to 200 nM; as for `CCC(=O)Nc1c[nH]c2ccc(-c3ccnn3-c3ccc(C(F)(F)F)cc3)cc12` [Compound 116, N-(5-(1-(4-(trifluoromethyl)phenyl)-1H-pyrazol-5-yl)-1H-indol-3-yl)propionamide], 5000 to 100000 nM.
Next, `CCC(=O)Nc1c[nH]c2ccc(-c3ccn(-c4ccc(C(F)(F)F)cc4)n3)cc12` [Compound 117, N-(5-(1-(4-(trifluoromethyl)phenyl)-1H-pyrazol-3-yl)-1H-indol-3-yl)propionamide]: 1000 to 5000 nM; `CCC(=O)Nc1c[nH]c2ccc(-c3ccc(-c4cnn(C(C)C)c4)cc3)cc12` [Compound 118, N-(5-(4-(1-isopropyl-1H-pyrazol-4-yl)phenyl)-1H-indol-3-yl)propionamide]: 1000 to 5000 nM; `CCC(=O)Nc1c[nH]c2ccc(-c3cnn(-c4ccc(Cl)cc4)c3)cc12` [Compound 119, N-(5-(1-(4-chlorophenyl)-1H-pyrazol-4-yl)-1H-indol-3-yl)propionamide]: 200 to 1000 nM.
As to `CCC(=O)Nc1c[nH]c2ccc(-c3cnn(-c4ccc(CC)nc4)c3)cc12` [Compound 120, N-(5-(1-(6-ethylpyridin-3-yl)-1H-pyrazol-4-yl)-1H-indol-3-yl)propionamide], the concentration for a half-maximal effect (EC50) was in the range of 1000 to 5000 nM.
Consider `CCc1ccc(-n2cc(-c3ccc4[nH]cc(NC(=O)C5CC(=O)N5)c4c3)cn2)cc1` (stereo not drawn) [Compound 121, N-(5-(1-(4-ethylphenyl)-1H-pyrazol-4-yl)-1H-indol-3-yl)-4-oxoazetidine-2-carboxamide], for which the EC50 fell in the range of 200 to 1000 nM.
As for `CCc1ccc(-n2cc(-c3ccc4[nH]cc(NC(=O)C5CCCO5)c4c3)cn2)cc1` (stereo not drawn) [Compound 122, N-(5-(1-(4-ethylphenyl)-1H-pyrazol-4-yl)-1H-indol-3-yl)tetrahydrofuran-2-carboxamide], the figure is 200 to 1000 nM.
Next, `CCc1ccc(-n2cc(-c3ccc4[nH]cc(NC(=O)C5CCCCC5)c4c3)cn2)cc1` [Compound 123, N-(5-(1-(4-ethylphenyl)-1H-pyrazol-4-yl)-1H-indol-3-yl)cyclohexanecarboxamide]: 40 to 200 nM.
Next, `CCc1ccc(-n2cc(-c3ccc4[nH]cc(NC(=O)C5CCC5)c4c3)cn2)cc1` [Compound 124, N-(5-(1-(4-ethylphenyl)-1H-pyrazol-4-yl)-1H-indol-3-yl)cyclobutanecarboxamide]: 40 to 200 nM; `CCc1ccc(-n2cc(-c3ccc4[nH]cc(NC(=O)CN(C)C)c4c3)cn2)cc1` [Compound 125, 2-(dimethylamino)-N-(5-(1-(4-ethylphenyl)-1H-pyrazol-4-yl)-1H-indol-3-yl)acetamide]: 5000 to 100000 nM; `CCc1ccc(-n2cc(-c3ccc4[nH]cc(NC(=O)CO)c4c3)cn2)cc1` [Compound 126, N-(5-(1-(4-ethylphenyl)-1H-pyrazol-4-yl)-1H-indol-3-yl)-2-hydroxyacetamide]: 200 to 1000 nM.
With `CCC(=O)Nc1c[nH]c2ccc(-c3cnn(Cc4cccc(C(F)(F)F)c4)c3)cc12` [Compound 127, N-(5-(1-(3-(trifluoromethyl)benzyl)-1H-pyrazol-4-yl)-1H-indol-3-yl)propionamide], the EC50 is 200 to 1000 nM.
Turning to `CCC(=O)Nc1c[nH]c2ccc(-c3cnn(-c4cccc(CC)c4)c3)cc12` [Compound 128, N-(5-(1-(3-ethylphenyl)-1H-pyrazol-4-yl)-1H-indol-3-yl)propionamide], the EC50 lay within 200 to 1000 nM.
As for `CCc1ccc(-n2cc(-c3ccc4[nH]cc(NC(=O)C5CN(C)C5)c4c3)cn2)cc1` [Compound 129, N-(5-(1-(4-ethylphenyl)-1H-pyrazol-4-yl)-1H-indol-3-yl)-1-methylazetidine-3-carboxamide], the figure is 5000 to 100000 nM; as for `CCc1ccc(-n2cc(-c3ccc4[nH]cc(NC(=O)/C=C/COC)c4c3)cn2)cc1` [Compound 130, (E)-N-(5-(1-(4-ethylphenyl)-1H-pyrazol-4-yl)-1H-indol-3-yl)-4-methoxybut-2-enamide], 200 to 1000 nM.
Take `CCC(=O)Nc1c[nH]c2ccc(N3CCN(c4ccccc4)CC3)cc12` [Compound 131, N-(5-(4-phenylpiperazin-1-yl)-1H-indol-3-yl)propionamide]: the EC50 was in the range of 5000 to 100000 nM.
Next, `CCc1ccc(-n2cc(-c3ccc4[nH]cc(NC(=O)C(C)O)c4c3)cn2)cc1` (stereo not drawn) [Compound 132, N-(5-(1-(4-ethylphenyl)-1H-pyrazol-4-yl)-1H-indol-3-yl)-2-hydroxypropanamide]: 200 to 1000 nM.
Next, `CCc1ccc(-n2cc(-c3ccc4[nH]cc(NC(=O)C(C)C)c4c3)cn2)cc1` [Compound 133, N-(5-(1-(4-ethylphenyl)-1H-pyrazol-4-yl)-1H-indol-3-yl)isobutyramide]: 40 to 200 nM.
